Measured values taken from US12414959B2, “Glucose infusion solution composition” (priority 2017, dated 2025).
Converted amounts (≈) assume the structure as drawn.

Experiments:
[1] = Stabilizer test (sodium bisulfite, EDTA-2Na dihydrate): color, pH and osmolality over 10 days
Method: First, 200 μl of sample F6 was added to 1800 μl of water for injection, and then stirred at room temperature, thereby preparing six samples, each consisting of 2 ml of a 10-fold-diluted sugar solution (samples a, a-1, b, b-1, c and c-1).
Next, the pH of each of the six samples was measured, and then adjusted with NaOH so as to be close to in vivo plasma pH 7.4.
A 0.1% solution of sodium bisulfite was prepared by mixing 5 mg of sodium bisulfite as stabilizer with 5 ml of water for injection, and a 0.2% solution of EDTA-2Na dihydrate was prepared by mixing 10 mg of EDTA-2Na dihydrate with 5 ml of water for injection. Then, 110 μl of each of the prepared solutions was added to some of the six 10-fold-diluted sugar solutions.

[2] = cited from earlier work
[3] = Preparation of clear sugar mixture solutions: clearness of dissolution; type: physicochemical; settings: added in an amount of two times the solubility until colorless, water for injection, room temperature
Method: Then, each sugar was added to 2 ml of water for injection, and stirred at room temperature until a clear solution was obtained. […] In addition, a sample was prepared by doubling the amount of sample F1, and the clearness of the solution was observed (F2).

[4] = Preliminary experiment on amino acids excluded from the test; type: physicochemical

Row | SMILES | suitability as stabilizer for sample F6 [1] | Solubility (Colorless): Solubility until colorless [2] [mg/mL] | Solubility (Maximum): A maximum of solubility [2] [mg/mL] | clearness of dissolution [3] | initial osmolality variation when added [4]
1 | O.O.O=C([O-])CN(CCN(CC(=O)O)CC(=O)O)CC(=O)[O-].[Na+].[Na+] [EDTA-2NA dihydrate, disodium edetate dihydrate] | not suitable | – | – | – | –
2 | O=C[C@H](O)[C@@H](O)[C@@H](O)[C@H](O)CO [Galactose, galactose] | – | 100 (≈ 555 mM) | 683 | clearly dissolved | –
3 | O=C[C@H](O)[C@@H](O)[C@H](O)[C@H](O)CO [Glucose, glucose] | – | 133 (≈ 738 mM) | – | clearly dissolved | –
4 | C[C@H](O)[C@@H](O)[C@@H](O)[C@H](O)C=O [L-Fucose, L-fucose] | – | 50 (≈ 305 mM) | 827 | clearly dissolved | –
5 | CC(=O)N[C@H]1C(O)O[C@H](CO)[C@H](O)[C@@H]1O (stereo partly drawn) [N-Acetyl galactosamine, N-acetylgalactosamine] | – | 50 (≈ 226 mM) | 100 | clearly dissolved | –
6 | CC(=O)N[C@H]1C(O)O[C@H](CO)[C@@H](O)[C@@H]1O (stereo partly drawn) [N-Acetyl glucosamine, N-acetylglucosamine] | – | 50 (≈ 226 mM) | 50 | clearly dissolved | –
7 | CC(=O)N[C@H]1[C@H]([C@H](O)[C@H](O)CO)OC(O)(C(=O)O)C[C@@H]1O (stereo partly drawn) [N-Acetyl neuraminic acid, N-acetylneuraminic acid] | – | 50 (≈ 162 mM) | 50 | not clearly dissolved | –
8 | O=C[C@H](O)[C@@H](O)[C@H](O)CO [Xylose, xylose] | – | 50 (≈ 333 mM) | 100 | not clearly dissolved | –
9 | N[C@@H](CS)C(=O)O [cysteine] | – | – | – | – | excessively high
10 | O=S([O-])O.[Na+] [sodium bisulfite] | not suitable | – | – | – | –
11 | N[C@@H](Cc1c[nH]c2ccccc12)C(=O)O [tryptophan] | – | – | – | – | excessively high
